# Assays:
# Type in all cases: biochemical
# ERK2 = ERK2 (Homo sapiens, UniProt P28482); test: […] kinase assay with recombinant active ERK2
# p38α = p38α (Homo sapiens, UniProt Q16539); test: […] kinase assay with recombinant active p38α
# p110α (PI3-K) = p110α (PI3-K) (Homo sapiens, UniProt P42336); test: […] lipid kinase assay with recombinant active p110α
# p110α (PI3-K), sequence (P42336 whole entry): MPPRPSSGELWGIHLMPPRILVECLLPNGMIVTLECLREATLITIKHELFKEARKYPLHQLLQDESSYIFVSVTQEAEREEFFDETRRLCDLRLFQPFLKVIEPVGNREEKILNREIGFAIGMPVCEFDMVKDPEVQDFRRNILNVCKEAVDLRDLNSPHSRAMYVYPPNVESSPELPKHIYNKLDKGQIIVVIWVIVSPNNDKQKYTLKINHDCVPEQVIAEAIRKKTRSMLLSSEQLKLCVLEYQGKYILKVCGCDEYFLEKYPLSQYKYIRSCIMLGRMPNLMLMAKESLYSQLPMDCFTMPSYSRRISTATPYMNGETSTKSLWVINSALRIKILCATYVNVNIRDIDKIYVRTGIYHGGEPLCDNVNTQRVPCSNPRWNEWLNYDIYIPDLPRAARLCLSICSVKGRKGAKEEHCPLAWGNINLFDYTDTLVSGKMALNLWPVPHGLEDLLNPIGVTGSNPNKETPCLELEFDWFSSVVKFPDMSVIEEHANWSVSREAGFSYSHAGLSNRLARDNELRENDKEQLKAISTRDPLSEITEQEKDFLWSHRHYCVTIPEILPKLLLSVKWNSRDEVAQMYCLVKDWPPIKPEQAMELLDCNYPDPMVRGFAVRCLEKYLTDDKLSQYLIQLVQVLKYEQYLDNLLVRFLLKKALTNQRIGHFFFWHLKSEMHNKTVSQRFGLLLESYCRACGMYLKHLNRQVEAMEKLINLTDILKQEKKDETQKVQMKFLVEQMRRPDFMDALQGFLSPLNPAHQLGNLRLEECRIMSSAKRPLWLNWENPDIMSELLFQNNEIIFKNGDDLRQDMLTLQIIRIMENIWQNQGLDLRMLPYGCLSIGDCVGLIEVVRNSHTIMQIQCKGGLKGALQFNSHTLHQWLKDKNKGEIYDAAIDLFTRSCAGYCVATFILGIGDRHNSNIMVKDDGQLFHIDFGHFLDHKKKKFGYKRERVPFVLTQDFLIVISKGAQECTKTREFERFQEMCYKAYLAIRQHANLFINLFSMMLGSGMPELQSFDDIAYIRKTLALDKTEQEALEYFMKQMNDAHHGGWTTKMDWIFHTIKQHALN
# ERK2, sequence (P28482 2-360): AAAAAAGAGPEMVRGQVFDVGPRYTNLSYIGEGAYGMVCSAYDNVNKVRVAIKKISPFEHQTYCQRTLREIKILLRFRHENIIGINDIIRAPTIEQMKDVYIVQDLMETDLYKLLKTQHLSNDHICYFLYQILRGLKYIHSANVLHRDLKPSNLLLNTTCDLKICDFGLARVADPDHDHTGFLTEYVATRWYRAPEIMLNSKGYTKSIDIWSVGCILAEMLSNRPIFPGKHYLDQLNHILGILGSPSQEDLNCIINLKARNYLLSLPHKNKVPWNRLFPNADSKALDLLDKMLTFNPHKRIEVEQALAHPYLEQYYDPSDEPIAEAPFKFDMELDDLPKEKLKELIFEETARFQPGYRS
# p38α, sequence (Q16539 2-360): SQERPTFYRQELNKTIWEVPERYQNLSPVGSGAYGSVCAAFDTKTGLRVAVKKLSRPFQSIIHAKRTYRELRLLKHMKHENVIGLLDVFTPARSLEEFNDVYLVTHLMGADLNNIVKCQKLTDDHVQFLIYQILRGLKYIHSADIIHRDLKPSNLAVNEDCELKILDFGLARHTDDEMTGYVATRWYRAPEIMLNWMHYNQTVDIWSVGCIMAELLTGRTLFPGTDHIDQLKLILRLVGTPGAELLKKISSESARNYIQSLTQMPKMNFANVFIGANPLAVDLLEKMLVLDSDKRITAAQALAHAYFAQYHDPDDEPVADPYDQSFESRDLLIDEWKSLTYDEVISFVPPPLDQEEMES
smiles,measurement,setting,value
"O=C1CCC(O)(CCOC(=O)/C=C/c2ccc(O)c(O)c2)CC1 [HOEC, (+)-2-(1-hydroxyl-4-oxocyclohexyl) ethyl caffeate]",IC50,ERK2,20.9 µM
same,IC50,p38α,12.9 µM
same,IC50,p110α (PI3-K),10.3 µM

# From publication PMC4125463 (Cancer prevention research (Philadelphia, Pa.), 2014)
